Measured values as given in patent US12509448B2, “Salts of indoleamine 2,3-dioxygenase inhibitors” (INVENTISBIO CO., LTD., priority 2019, dated 2025).
In brackets after ≈: the same amount, converted by molar mass. Entries after “also recorded” stand apart in the source; their conditions may differ. Structures can show the parent of a compound that is named as a salt.

How the values were obtained:
[1] = Dynamic moisture sorption analysis (DVS); assay type: physicochemical; conditions: for moisture adsorbed in DVS test: at 80% RH
Description: Dynamic moisture sorption analysis (DVS): DVS was determined using IGAsorp (Hiden Isochema, UK). The sample was tested at a targeted RH of 10 to 90% full cycle in step mode. The analysis was performed in 10% RH increments.

human hepatocyte = conditions: compared to INCB-24360 and others of WO2014150677 and WO2014150646; cited from earlier work
[2] = Solubility test in pH 1.2, 6.8 and 7.4 buffers (HPLC, pH of filtrate, XRPD of remaining solid); assay type: physicochemical; conditions: for remaining solid by XRPD: pH 1.2 buffer solution; for change of pH of the buffer solutions: HCl salt: pH 6.8 and 7.4 buffer solutions, K salt: buffers; for solubility compared with Compound 1: buffer solutions
Description: (§1) HPLC ANALYSIS: a representative HPLC method is shown below, which can be used, for example, to analyze the purity, solubility, and stability of the salts herein.
Solubility test: About 15-20 mg of Compound 1 (Form II), K salt (Form III) and HCl salt (Form I) were weighed into vials, and then added 1.5 mL of pH 1.2, pH 6.8 or pH 7.4 buffer to make saturated solutions.
All suspensions were kept shaking with 200 rpm at room temperature for up to 24 hours. At 30 min and 24 hours, the sample solution was filtered and analyzed by HPLC to determine the solubility. The pH of filtrates was also measured. At 24 hours, remaining solids were collected and determined by XRPD.
First, the solubility of Compound 1, HCl salt and K salt was tested in pH 1.2, 6.8 and 7.4 buffer solutions at 25° C. for 30 min and 24 hours. The solubility data and pH value of filtrate were listed in Table 6 and Table 7, respectively.
Additional solubility of Compound 1 and the HCl salt was tested in pH 6.8 and 7.4 for 30 min and 2 hours.

[3] = Solid stability test at 40° C./75% RH (HPLC, XRPD); assay type: physicochemical; conditions: for physical and chemical stability (XRPD and HPLC): 40° C./75% RH during testing period (9 days; HCl salt 7 days); for Purity (% Area) Initilal: solid stability test, 0 days
Description: as §1
Stability test: About 15 mg of Compound 1 (Form II), and K salt (Form III) were weighed into vials, and put at the condition of 40° C./75% RH for 9 days. At 0 and 9 days, the solid sample was dissolved using methanol/water (1/1) to make a solution with a concentration of 0.2 mg/mL. Sample solutions were analyzed by HPLC and solid samples were examined by XRPD.
About 15 mg of Compound 1 HCl salt (Form I) was weighed into vials, and put at the condition of 40° C./75% RH for 7 days. At 0 and 7 days, the solid sample was dissolved using methanol/water (1/1) to make a solution with the concentration of 0.2 mg/mL. The sample solution was analyzed by HPLC and solid sample was analyzed by XRPD.
K salt and Compound 1 was stored at 40° C./75% RH for 9 days, while HCl salt was stored for 7 days.

[4] = Grinding of Form I (XRPD); assay type: physicochemical; conditions: grinded for 2 min and 5 min
Description: Form I of the HCl salt was grinded for 2 min and 5 min.

[5] = Stability of HCl salt Form I in water and in solvent; assay type: physicochemical
[6] = Physical stability of Form I under heat and high humidity (XRPD); assay type: physicochemical; conditions: for crystalline form by XRPD after storage at high humidity: 25° C./92.5% RH for 10 days; for crystalline form by XRPD after storage under heat: 60° C. for 10 days
Description: Samples of HCl salt Form I was put into the condition of 92.5% RH or 60° C. for 10 days. Then the sample was analyzed by XRPD. […] XRPD patterns were shown in FIG. 1C (92.5% RH for 10 days) and FIG. 1D (60° C. for 10 days).

[7] = additional test (Table 8), pH 6.8 buffer
[8] = additional test (Table 8), pH 6.8 buffer, 2 hours
[9] = additional test (Table 8), pH 7.4 buffer
[10] = additional test (Table 8), pH 7.4 buffer, 2 hours
[11] = pH 1.2 buffer, 24 hours, 25° C.
[12] = pH 6.8 buffer, 24 hours, 25° C.
[13] = pH 7.4 buffer, 24 hours, 25° C.

Row | XRPD pattern after DVS test [1] | moisture adsorbed in DVS test [1] | Solubility (mg/mL) 30 min [2, 7] | Solubility (mg/mL) 2 hours [2, 8] | Solubility (mg/mL) 30 min [2, 9] | Solubility (mg/mL) 2 hours [2, 10] | remaining solid by XRPD ([2]; 24 hours) | pH value of filtrate 30 min ([2]; pH 1.2 buffer) | Solubility (mg/mL) 30 min ([2]; pH 1.2 buffer, 25° C.) | pH value of filtrate 24 hours ([2]; pH 1.2 buffer, 24 hours) | pH value of filtrate 30 min ([2]; pH 6.8 buffer) | Solubility (mg/mL) 30 min ([2]; pH 6.8 buffer, 25° C.) | pH value of filtrate 24 hours ([2]; pH 6.8 buffer, 24 hours) | Solubility (mg/mL) 24 hours [2, 12] | pH value of filtrate 30 min ([2]; pH 7.4 buffer) | Solubility (mg/mL) 30 min ([2]; pH 7.4 buffer, 25° C.) | pH value of filtrate 24 hours ([2]; pH 7.4 buffer, 24 hours) | Solubility (mg/mL) 24 hours [2, 13] | physical and chemical stability (XRPD and HPLC) [3] | Purity (% Area) Initilal [3] | SMILES | further results
1 | not changed | about 0.37% | 0.11 mg/mL (≈ 256 µM) | 0.12 mg/mL (≈ 279 µM) | 0.39 mg/mL (≈ 907 µM) | 0.44 mg/mL (≈ 1020 µM) | changed into HCl salt | 1.11 | 0.49 mg/mL (≈ 1140 µM) | 1.16 | 6.87 | 0.13 mg/mL (≈ 302 µM) | 6.81 | 0.04 mg/mL (≈ 93 µM) | 7.39 | 0.44 mg/mL (≈ 1020 µM) | 7.38 | 0.50 mg/mL (≈ 1160 µM) | physically and chemically stable | 99.53 % Area | CCN(c1ncc(C2(C(=O)O)CCC2)cc1Nc1ccc(Cl)cc1)C1CCOCC1 [Compound 1, 1-(5-((4-chlorophenyl)amino)-6-(ethyl(tetrahydro-2H-pyran-4-yl)amino)pyridin-3-yl)cyclobutane-1-carboxylic acid] | XRPD pattern after DVS test ([1]; listed as Form II): remained unchanged; human hepatocyte clearance compared to other IDO inhibitors (human hepatocyte): better human hepatocyte clearance; Solubility (mg/mL) 24 hours [2, 11]: 0.51 mg/mL (≈ 1190 µM); Purity (% Area) 9 days ([3]; solid, 40° C./75% RH): 99.53 % Area
2 | not changed | – | 1.62 mg/mL | 0.95 mg/mL | 3.41 mg/mL | 3.53 mg/mL | – | 1.10 | 0.58 mg/mL | 1.17 | 6.59 | 1.45 mg/mL | 3.34 | 0.02 mg/mL | 7.02 | 3.66 mg/mL | 6.06 | 0.49 mg/mL | physically and chemically stable | 99.81 % Area | CCN(c1ncc(C2(C(=O)O)CCC2)cc1Nc1ccc(Cl)cc1)C1CCOCC1 [HCl salt] | crystalline form by XRPD after grinding [4]: still Form I; XRPD pattern after DVS test ([1]; listed as Form I): remained unchanged; degradation in solvent ([5]; in THE at 60° C.): can be degraded; dissociation in water ([5]; in water): can dissociate to Compound 1; change of pH of the buffer solutions [2]: obviously decreased; solubility compared with Compound 1 [2]: higher solubility than Compound 1; also recorded: more soluble than Compound 1; solubility at 24 h ([2]; pH 1.2 buffer, 25 °C, pH 1.2, simulated gastric fluid, thermodynamic from solid, pH 1.2 buffer, 24 hours, 25° C., read-out: Solubility (mg/mL) 24 hours): 0.65 mg/mL; change of solubility with time ([2]; pH 6.8 and 7.4 buffers at 24 hours): obviously decreased; solid by XRPD ([2]; pH 6.8 and 7.4 buffers, 2 hours): part of HCl salt had been changed to be Compound 1; change of solubility with time ([2]; pH 6.8 buffer at 2 hours): decreased; change of solubility with time ([2]; pH 7.4 buffer, 2 hours versus 30 min): almost constant; Purity (% Area) 7 days ([3]; solid, 40° C./75% RH, 7 days): 99.78 % Area; crystalline form by XRPD after storage at high humidity [6]: unchanged; crystalline form by XRPD after storage at high humidity ([6]; listed as Form I): remained unchanged; crystalline form by XRPD after storage under heat [6]: unchanged; crystalline form by XRPD after storage under heat ([6]; listed as Form I): remained unchanged
3 | – | – | – | – | – | – | changed into HCl salt | 1.18 | 9.52 mg/mL | 1.23 | 6.84 | 2.55 mg/mL | 7.46 | 0.55 mg/mL | 7.62 | 6.38 mg/mL | 8.02 | 2.25 mg/mL | physically and chemically stable | 99.80 % Area | CCN(c1ncc(C2(C(=O)O)CCC2)cc1Nc1ccc(Cl)cc1)C1CCOCC1 [K salt] | XRPD pattern after DVS test ([1]; listed as potassium salt): not changed; moisture adsorbed in DVS test ([1]; listed as potassium salt): 1.32%; change of pH of the buffer solutions [2]: increased; solubility compared with Compound 1 [2]: much higher; also recorded: higher solubility than Compound 1; solubility compared with Compound 1 ([2]; listed as potassium salt): more soluble than Compound 1; Solubility (mg/mL) 24 hours [2, 11]: 0.71 mg/mL; Purity (% Area) 9 days ([3]; solid, 40° C./75% RH): 99.79 % Area
4 | changed | 30.84% | – | – | – | – | – | – | – | – | – | – | – | – | – | – | – | – | – | – | CCN(c1ncc(C2(C(=O)O)CCC2)cc1Nc1ccc(Cl)cc1)C1CCOCC1 [Na salt] | XRPD pattern after DVS test ([1]; listed as Form IV): changed into a different form; moisture adsorbed in DVS test ([1]; listed as sodium salt): about 30%
